Data taken from patent publication US11718601B2 (Bristol-Myers Squibb Company, priority 2021, dated 2023).

Experiments:
[1] = molecular target: T1, Helios (Homo sapiens, UniProt Q96SW2+Q9UKS7); assay: Helios Cellular Degradation Assay (Helios, Jurkat); format: cell-based; conditions: Jurkat cells, 72 h incubation, flow cytometry with Helios-PE antibody; read-out: Helios Jurkat IC50
T1 construct: endogenous in cells; host or cells: Jurkat cells
Experimental: (§1) Jurkat cells were plated at 80,000 cells/well in 40 μL RPMI+10% FBS in a 384 well cell culture plate prior to using acoustic dispensing technology for adding compound of interest. Cell cultures were incubated for 72 h at 37° C. and 5% CO2. In order to facilitate analysis, cell cultures were spun down at 200 rpm for 5 min and the supernatant was discarded. […] Subsequently, 30 μL of 1× Permeabilization buffer was added prior to centrifuging the cells and discarding the supernatant. Stained cells were resuspended in 25 μL of flow cytometry staining buffer (PBS+0.2% BSA) and analyzed using an Intellicyt Ique Plus flow cytometer.

[2] = molecular target: T2, Ikaros (Homo sapiens, UniProt Q13422+Q96SW2); assay: Helios Cellular Degradation Assay (Ikaros, Jurkat); format: cell-based; conditions: Jurkat cells, 72 h incubation, flow cytometry with Ikaros-Alexa488 antibody; read-out: Ikaros Jurkat IC50
T2 construct: endogenous in cells; host or cells: Jurkat cells
Experimental: as §1

T1 sequence (Q9UKS7 whole entry): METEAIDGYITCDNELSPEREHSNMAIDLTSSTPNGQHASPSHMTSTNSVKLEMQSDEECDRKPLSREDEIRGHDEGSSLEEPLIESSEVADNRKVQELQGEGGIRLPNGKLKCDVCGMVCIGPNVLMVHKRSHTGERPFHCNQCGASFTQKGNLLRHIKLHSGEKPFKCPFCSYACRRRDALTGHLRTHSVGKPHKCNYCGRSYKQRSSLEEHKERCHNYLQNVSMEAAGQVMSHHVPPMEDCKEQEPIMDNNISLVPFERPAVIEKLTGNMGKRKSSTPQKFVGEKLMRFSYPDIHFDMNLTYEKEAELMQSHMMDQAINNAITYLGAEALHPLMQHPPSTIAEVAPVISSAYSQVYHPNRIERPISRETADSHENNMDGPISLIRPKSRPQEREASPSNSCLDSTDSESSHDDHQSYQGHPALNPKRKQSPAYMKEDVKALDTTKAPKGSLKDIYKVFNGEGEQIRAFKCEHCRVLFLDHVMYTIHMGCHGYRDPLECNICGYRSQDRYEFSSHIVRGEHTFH
T1 sequence (Q96SW2 whole entry): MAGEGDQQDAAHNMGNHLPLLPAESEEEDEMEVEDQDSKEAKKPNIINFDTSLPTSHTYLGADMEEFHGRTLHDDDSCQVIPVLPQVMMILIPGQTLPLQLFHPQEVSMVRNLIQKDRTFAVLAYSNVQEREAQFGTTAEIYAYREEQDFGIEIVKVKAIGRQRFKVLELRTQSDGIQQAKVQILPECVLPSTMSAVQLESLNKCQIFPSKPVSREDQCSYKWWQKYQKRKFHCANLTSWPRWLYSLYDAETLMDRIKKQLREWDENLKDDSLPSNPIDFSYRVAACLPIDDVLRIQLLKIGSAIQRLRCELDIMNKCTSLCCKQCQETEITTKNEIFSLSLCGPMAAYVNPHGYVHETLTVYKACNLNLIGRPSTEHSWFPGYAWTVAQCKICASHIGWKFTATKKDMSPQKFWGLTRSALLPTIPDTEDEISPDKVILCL
T1 sequence (Q16531 whole entry partner): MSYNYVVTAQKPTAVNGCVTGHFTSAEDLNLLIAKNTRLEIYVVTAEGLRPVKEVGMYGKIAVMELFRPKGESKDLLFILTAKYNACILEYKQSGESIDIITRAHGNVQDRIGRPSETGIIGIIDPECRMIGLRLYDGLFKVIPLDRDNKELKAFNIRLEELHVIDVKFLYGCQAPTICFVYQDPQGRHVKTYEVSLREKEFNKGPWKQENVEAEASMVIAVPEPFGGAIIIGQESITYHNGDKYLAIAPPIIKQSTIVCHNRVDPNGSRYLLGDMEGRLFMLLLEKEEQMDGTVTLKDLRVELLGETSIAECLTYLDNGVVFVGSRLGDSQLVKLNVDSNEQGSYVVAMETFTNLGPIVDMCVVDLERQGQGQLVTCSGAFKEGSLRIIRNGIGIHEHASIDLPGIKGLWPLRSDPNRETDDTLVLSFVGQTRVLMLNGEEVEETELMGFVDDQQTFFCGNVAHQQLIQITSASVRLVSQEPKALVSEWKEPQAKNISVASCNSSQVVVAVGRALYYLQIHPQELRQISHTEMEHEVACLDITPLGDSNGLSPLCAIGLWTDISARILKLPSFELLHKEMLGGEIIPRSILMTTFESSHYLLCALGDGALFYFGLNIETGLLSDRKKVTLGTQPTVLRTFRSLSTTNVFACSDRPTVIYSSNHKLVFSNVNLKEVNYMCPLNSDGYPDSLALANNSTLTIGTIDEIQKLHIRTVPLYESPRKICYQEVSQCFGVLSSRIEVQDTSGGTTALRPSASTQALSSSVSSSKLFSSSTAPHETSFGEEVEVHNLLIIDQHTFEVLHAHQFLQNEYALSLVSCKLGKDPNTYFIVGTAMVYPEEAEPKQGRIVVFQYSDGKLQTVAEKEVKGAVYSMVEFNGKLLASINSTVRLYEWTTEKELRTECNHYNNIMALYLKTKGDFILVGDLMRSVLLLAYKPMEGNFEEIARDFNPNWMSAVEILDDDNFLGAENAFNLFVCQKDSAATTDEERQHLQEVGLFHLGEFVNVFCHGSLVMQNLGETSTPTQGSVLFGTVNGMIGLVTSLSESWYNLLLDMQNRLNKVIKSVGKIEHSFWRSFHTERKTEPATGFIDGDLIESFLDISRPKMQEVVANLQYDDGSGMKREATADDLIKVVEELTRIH
T2 sequence (Q13422 whole entry): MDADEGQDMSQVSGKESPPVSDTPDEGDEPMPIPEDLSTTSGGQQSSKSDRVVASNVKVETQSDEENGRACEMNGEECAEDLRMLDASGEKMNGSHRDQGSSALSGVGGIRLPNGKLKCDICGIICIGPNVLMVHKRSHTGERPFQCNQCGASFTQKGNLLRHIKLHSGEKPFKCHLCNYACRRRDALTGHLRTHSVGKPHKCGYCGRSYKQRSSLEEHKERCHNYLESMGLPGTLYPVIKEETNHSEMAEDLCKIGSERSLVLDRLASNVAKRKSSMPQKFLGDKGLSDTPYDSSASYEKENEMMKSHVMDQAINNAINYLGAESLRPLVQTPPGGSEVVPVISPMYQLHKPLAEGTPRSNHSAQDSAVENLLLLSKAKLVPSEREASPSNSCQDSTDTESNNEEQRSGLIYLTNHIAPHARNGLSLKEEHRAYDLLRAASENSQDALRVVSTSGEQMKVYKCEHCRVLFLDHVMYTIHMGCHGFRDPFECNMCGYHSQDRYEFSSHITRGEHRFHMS
T2 sequence (Q96SW2 whole entry): as the sequence (Q96SW2 whole entry) above
T2 sequence (Q16531 whole entry partner): as the sequence (Q16531 whole entry partner) above

| SMILES | DC50 [1] | DC50 [2] |
| --- | --- | --- |
| Cc1cc(-c2ccc3c(c2)C(C)N(C2CCC(=O)NC2=O)C3=O)nc(N)c1F (single isomer, unassigned) [Example 22] | 0.2 µM | > 10 µM |
| Cc1cc(-c2ccc3c(c2C)CN(C2CCC(=O)NC2=O)C3=O)nc(N)c1C#N (stereo not shown) [Example 1, 2-amino-6-(2-(2,6-dioxopiperidin-3-yl)-4-methyl-1-oxoisoindolin-5-yl)-4-methylnicotinonitrile] | 1.4 µM | > 10 µM |
| Cc1cc(-c2ccc3c(c2F)CN(C2CCC(=O)NC2=O)C3=O)nc(N)c1C#N (stereo not shown) [Example 3, 2-Amino-6-(2-(2,6-dioxopiperidin-3-yl)-4-fluoro-1-oxoisoindolin-5-yl)-4-methylnicotinonitrile] | 0.003 µM | > 10 µM |
| Cc1cc(-c2ccc3c(c2F)CN(C2CCC(=O)NC2=O)C3=O)nc(N)c1C (stereo not shown) [Example 7, 3-(5-(6-Amino-4,5-dimethylpyridin-2-yl)-4-fluoro-1-oxoisoindolin-2-yl)piperidine-2,6-dione] | 0.001 µM | > 10 µM |
| CNc1nc(-c2ccc3c(c2)[C@H](C)N(C2CCC(=O)NC2=O)C3=O)cc(C)c1C (stereo partly drawn) [Example 12, 3-((S)-5-(4,5-Dimethyl-6-(methylamino)pyridin-2-yl)-3-methyl-1-oxoisoindolin-2-yl) piperidine-2,6-dione] | 0.033 µM | > 10 µM |
| Cc1cc(-c2ccc3c(c2F)CN(C2CCC(=O)NC2=O)C3=O)nc(N)c1F (stereo not shown) [Example 19, 3-(5-(6-Amino-5-fluoro-4-methylpyridin-2-yl)-4-fluoro-1-oxoisoindolin-2-yl)piperidine-2,6-dione] | 0.0035 µM | > 10 µM |
| Cc1cc(N)nc(-c2ccc3c(c2F)CN(C2CCC(=O)NC2=O)C3=O)c1F (stereo not shown) [Example 20, 3-(5-(6-Amino-3-fluoro-4-methylpyridin-2-yl)-4-fluoro-1-oxoisoindolin-2-yl)piperidine-2,6-dione] |  | > 10 µM |
| Cc1cc(-c2ccc3c(c2F)[C@@H](C)N(C2CCC(=O)NC2=O)C3=O)nc(N)c1C#N (stereo partly drawn) [Example 23, 2-Amino-6-((3R)-2-(2,6-dioxopiperidin-3-yl)-4-fluoro-3-methyl-1-oxoisoindolin-5-yl)-4-methylnicotinonitrile] | 0.035 µM | > 10 µM |
| Cc1cc(N)nc(-c2ccc3c(c2F)[C@@H](C)N(C2CCC(=O)NC2=O)C3=O)c1 (stereo partly drawn) [Example 24, 3-((R)-5-(6-Amino-4-methylpyridin-2-yl)-4-fluoro-3-methyl-1-oxoisoindolin-2-yl) piperidine-2,6-dione] | 0.16 µM | > 10 µM |
| C[C@@H]1c2c(ccc(-c3cc(C(F)(F)F)cc(N)n3)c2F)C(=O)N1C1CCC(=O)NC1=O (stereo partly drawn) [Example 25, 3-((R)-5-(6-Amino-4-(trifluoromethyl)pyridin-2-yl)-4-fluoro-3-methyl-1-oxoisoindolin-2-yl)piperidine-2,6-dione] | 1.3 µM | > 10 µM |
| Cc1cc(-c2ccc3c(c2F)[C@@H](C)N(C2CCC(=O)NC2=O)C3=O)nc(N)c1F (stereo partly drawn) [Example 29, 3-((R)-5-(6-amino-5-fluoro-4-methylpyridin-2-yl)-4-fluoro-3-methyl-1-oxoisoindolin-2-yl)piperidine-2,6-dione] | 0.024 µM | > 10 µM |
| Cc1cc(-c2ccc3c(c2F)[C@H](C)N(C2CCC(=O)NC2=O)C3=O)nc(N)c1F (stereo partly drawn) [Example 30, 3-((S)-5-(6-Amino-5-fluoro-4-methylpyridin-2-yl)-4-fluoro-3-methyl-1-oxoisoindolin-2-yl)piperidine-2,6-dione] | 0.7 µM | > 10 µM |

Second part, the compound after the results:

| DC50 [1] | DC50 [2] | SMILES |
| --- | --- | --- |
| 0.003 µM | > 10 µM | Cc1cc(-c2ccc3c(c2)[C@@H](C)N(C2CCC(=O)NC2=O)C3=O)nc(N)c1C (single isomer, unassigned) [Example 9] |
| 0.31 µM | > 10 µM | Cc1cc(-c2ccc3c(c2)[C@H](C)N(C2CCC(=O)NC2=O)C3=O)nc(N)c1C#N (single isomer, unassigned) [Example 10] |
| 0.006 µM | > 10 µM | Cc1cc(-c2ccc3c(c2)[C@@H](C)N(C2CCC(=O)NC2=O)C3=O)nc(N)c1C#N (single isomer, unassigned) [Example 11] |
| 2.8 µM | > 10 µM | CNc1nc(-c2ccc3c(c2)[C@@H](C)N(C2CCC(=O)NC2=O)C3=O)cc(C)c1C (single isomer, unassigned) [Example 13] |
| 1 µM | > 10 µM | CNc1nc(-c2ccc3c(c2)[C@H](C)N(C2CCC(=O)NC2=O)C3=O)cc(C)c1C#N (single isomer, unassigned) [Example 14] |
| 0.057 µM | > 10 µM | CNc1nc(-c2ccc3c(c2)[C@@H](C)N(C2CCC(=O)NC2=O)C3=O)cc(C)c1C#N (single isomer, unassigned) [Example 15] |
| 0.0058 µM | > 10 µM | Cc1cc(-c2ccc3c(c2)C(C)N(C2CCC(=O)NC2=O)C3=O)nc(N)c1F (single isomer, unassigned) [Example 21] |
